# Where two headings read alike, the source gives them in different places.
# Columns and labels:
# MCF-7/DX = settings: read-out: IC50 of cisplatin; cited from earlier work
# HOS = settings: read-out: IC50 of cisplatin; cited from earlier work
# HT1080 = settings: read-out: IC50 of cisplatin; cited from earlier work
# OVCAR-3 = experiment: WST-1 IC50 determination, OVCAR-3; type: cell-based, human
# Description: (§1) Cell lines and culturing. The following human cell lines were purchased from ATCC (ATCC, Manassas, Va.): prostate cancer cells (PC-3), triple negative breast cancer cells (MDA-MB-231), ovarian cancer cells (OVCAR-3), normal bone marrow (NBM) and normal fibroblast cells (MCR5A). MDA-MB-231 cells were grown at 37° C. with 5% CO2 atmosphere with DMEM (Life technologies, Carlsbad, Calif.) supplemented with heat-inactivated 10% (V/V) fetal bovine serum. OVCAR-3 and PC-3 cells were grown at 37° C. with 5% CO2 atmosphere with RPMI (Life technologies, Carlsbad, Calif.) supplemented with heat-inactivated 10% (V/V) fetal bovine serum. Cell lines were grown and maintained according to ATCC recommendations.
# (§2) IC50 determination. Cell lines were seeded into 96-well plates the afternoon prior to treatment. Cell seeding number was determined by growing cells in log phase growth during drug treatment. Approximately 18 hours later, compounds were semi-serially diluted in dimethyl sulfoxide (DMSO) and then growth medium, and added to cells. Plates were incubated for 72 hours prior to addition of WST-1 (Promega, Madison Wis.). Plates were read after 4 additional hours of incubation at 37° C. using a Bio-Tek Synergy HT plate reader (Bio-Tek, Winooski, Vt.). Data was analyzed, graphed and IC50s generated using GraphPad Prism Software (Graphpad, La Jolla, Calif.).
# (§3) IC50 determination: For the determination of IC50 for the azolamide class, the same protocol as described previously was followed.
# PC-3 = experiment: WST-1 IC50 determination, PC-3; type: cell-based, human
# Description: as §1, §2, §3
# A431 = settings: read-out: IC50 of cisplatin; cited from earlier work
# HT29 = settings: read-out: IC50 of cisplatin; cited from earlier work
# RD = settings: read-out: IC50 of cisplatin; cited from earlier work
# PNT1 = settings: read-out: IC50 of cisplatin; cited from earlier work
# PANC-1 = settings: read-out: IC50 of cisplatin; cited from earlier work
# SH-SY5Y = settings: read-out: IC50 of cisplatin; cited from earlier work
# CAPAN-1 = settings: read-out: IC50 of cisplatin; cited from earlier work
# Hep2 = settings: read-out: IC50 of cisplatin; cited from earlier work
# SAOS-2 = settings: read-out: IC50 of cisplatin; cited from earlier work
# CFPAC-1 = settings: read-out: IC50 of cisplatin; cited from earlier work
# U2-OS = settings: read-out: IC50 of cisplatin; cited from earlier work
# A375 = settings: read-out: IC50 of cisplatin; cited from earlier work
# Calu-3 = settings: read-out: IC50 of cisplatin; cited from earlier work
# PC3 = settings: read-out: IC50 of cisplatin; cited from earlier work
# MDA-MB-231 = experiment: WST-1 IC50 determination, MDA-MB-231; type: cell-based, human
# Description: as §1, §2, §3
# SW872 = settings: read-out: IC50 of cisplatin; cited from earlier work
# THP1 = experiment: WST-1 IC50 determination, THP1; type: cell-based; settings: Homo sapiens, THP-1; THP1, 72 h; read-out: IC50 for killing Leukemia cell line
# Description: as §2, §3
# MV4-11 = experiment: IC50 determination, MV4-11; type: cell-based; settings: Homo sapiens, Acute monocyctic leukemia, read-out: Anticancer activities, MV4-11
# Description: as §2, §3
# Tolerability studies = type: in vivo; settings: mice, 10 mg/Kg
# MOLM14 = experiment: WST-1 IC50 determination, MOLM14; type: cell-based; settings: Homo sapiens
# Description: as §2, §3
# [1] = Human liver microsome stability; type: in vitro ADME; settings: human, liver microsomes
# Description: An established method to determine the pharmacokinetic clearance of a compound in humans is to measure the degradation of the compound in the presence of human liver microsomes. The following is the half-lives of the four compounds in human liver microsomes: […]
# U87 = experiment: IC50 determination, U87; type: cell-based; settings: Homo sapiens, U-87 MG; Glioblastoma; read-out: Anticancer activities, U87
# Description: as §2, §3
# NBM = experiment: WST-1 IC50 determination, normal bone marrow; type: cell-based, human
# Description: as §1, §2, §3
# [2] = system: triple-negative breast cancer cells; experiment: Cancer cell migration; type: cell-based; settings: increasing concentration
# Description: FIG. 36. […] Red=negative control—no FCS in bottom well. Green=DMSO. Blue and pink=increasing concentration of 630-1.
# duplex = experiment: FRET melting assay, duplex DNA; type: binding; settings: 0.2 μM dual-labeled DNA and 0.2 μM TMPyP4
# Pu27-13,14 = experiment: PCR stop assay, mutated control template; type: biochemical; settings: 10 μM compound
# Description: (§4) PCR Stop Assay. This assay was performed by modifying a previously published protocol.
# (§5) To the PCR reaction mixture (25 μL), 1×PCR buffer (New England Biolabs), 5 μM Pu27 and Pu27rev oligomers, various concentrations of ligands (DMZ, TMPyP4, DMZ1, DMZ9 and DMZ13) were added and incubated at 4° C. for 6 h. After that, 1 mM dNTPs, 5 units of Taq DNA polymerase (New England Biolabs) were added and PCR reactions were performed in a thermocycler, with the following conditions: 94° C. for 3 min, followed by 20 repeated cycles each having 94° C. for 30 s, 58° C. for 30 s, and 72° C. for 30 s. After PCR, amplified products were analyzed on 12% polyacrylamide gel with 1×TBE and SYBR Gold stained. This assay was also performed under the same conditions with Pu27-13,14 and Pu27rev.
# MCR5A = experiment: WST-1 IC50 determination, normal fibroblast; type: cell-based, human; settings: normal fibroblast cell, 72 hours, read-out: IC50 ± SD, MCR5A
# Description: as §1, §2
# c-MYC = experiment: FRET melting assay, c-MYC; type: binding; settings: 0.2 μM dual-labeled DNA and 0.2 μM TMPyP4
# c-kit2 = experiment: FRET melting assay, c-kit2; type: binding; settings: 0.2 μM dual-labeled DNA and 0.2 μM TMPyP4
# c-MYC Pu27 = experiment: PCR stop assay, Pu27 template; type: biochemical; settings: 10 μM compound
# Description: as §4, §5
# k-RAS21R = experiment: FRET melting assay, k-RAS21R; type: binding; settings: 0.2 μM dual-labeled DNA and 0.2 μM TMPyP4
# G-quadruplexes = settings: binding of classic G-tetrad-motif ligand to G-quadruplexes; cited from earlier work
# F21T = experiment: FRET melting assay, F21T; type: binding; settings: 0.2 μM dual-labeled DNA and 0.2 μM TMPyP4
# [3] = system: G-quadruplex DNAs (c-kit1, VEGF, bcl-2 2345 and TBA); experiment: UV-visible titration with G-quadruplex DNA; type: binding; settings: UV-visible titration conditions
# Description: UV titration studies of DNA with the triazene ligands, DMZ and Triazene-1. The molar extinction coefficients at 260 nm for 22-mer c-kit1, 18-mer VEGF, 23-mer bcl-2 2345, 15-mer TBA and 20-mer 8 bp AT are as follows 226,700 M^−1 cm^−1, 169,800 M^−1 cm^−1, 227,300 M^−1 cm^−1, 143,300 M^−1 cm^1 and 205,500 M^−1 cm^−1, respectively. The concentration of ligands used in this study was 10 μM and the DNA concentrations were 0, 0.25, 1.5, 3, 5, 6, 7, 8, 9, 10, 20, 30, 40, 50, 100, and 15 μM. The buffer contained 250 mM KCl, 50 mM Tris-HCl (at pH 7.5). The following quadruplex DNA were tested: c-kit1, VEGF, bcl-2 2345, and TBA. Duplex DNA (8 bp AT) was also tested. The sample was first heated up to 95° C. for 5 min without the ligand and then cooled down to room temperature in 15 min. The ligand was then added and the mixture was incubated at 4° C. for ˜12 h before recording the data. In case of Triazene-1 and Triazene-2, the sample mixture contained 1% DMSO.
# [4] = 72 hours, WST-1, read-out: Anticancer activity IC50 ± SD, OVCAR-3
# [5] = 72 hours, WST-1, read-out: Anticancer activity IC50 ± SD, PC-3
# [6] = 72 hours, WST-1, read-out: Anticancer activity IC50 ± SD, MDA-MB-231
# [7] = Homo sapiens, PC-3, prostate cancer, read-out: Anticancer activities, PC3
# [8] = Homo sapiens, Bone marrow cell, Normal bone marrow cells, read-out: Anticancer activities, NBM
# [9] = Homo sapiens, MDA-MB-231, triple negative breast cancer, read-out: Anticancer activities, TNBC 231
structure (smiles),measurement,setting,value
N.N.[Cl][Pt][Cl] [Cisplatin],IC50,MCF-7/DX,7 µM
same,IC50,HOS,10 µM
same,IC50,HT1080,9 µM
same,IC50,OVCAR-3; [4],4.1 ± 1.8 µM
same,IC50,PC-3; [5],10.5 ± 1.3 µM
same,IC50,"PC-3; prostate cancer, read-out: Anticancer activities, PC3",10.5 µM
same,IC50,A431,20 µM
same,IC50,HT29,22 µM
same,IC50,RD,6 µM
same,IC50,PNT1,5 µM
same,IC50,PANC-1,15 µM
same,IC50,SH-SY5Y,2 µM
same,IC50,CAPAN-1,> 50 µM
same,IC50,Hep2,7 µM
same,IC50,SAOS-2,11 µM
same,IC50,CFPAC-1,38 µM
same,IC50,U2-OS,20 µM
same,IC50,A375,6 µM
same,IC50,Calu-3,> 50 µM
same,IC50,PC3,12 µM
same,IC50,MDA-MB-231; [6],11.7 ± 1 µM
same,IC50,"MDA-MB-231; triple negative breast cancer, read-out: Anticancer activities, TNBC 231",11.7 µM
same,IC50,SW872,5 µM
N=C(N)c1ccc(/N=N/c2c(N)ncc3ccccc23)cc1 [HSW308-4],IC50,THP1,2.6 µM
same,IC50,"OVCAR-3; Homo sapiens, OVCAR-3, read-out: IC50 for killing ovarian cancer cell line (OVCAR-3)",4.2 µM
same,IC50,PC-3; [7],1.3 µM
same,IC50,"PC-3; Homo sapiens, PC-3, read-out: IC50 for killing prostate cancer cell line (PC-3)",1 µM
same,IC50,MV4-11,0.92 µM
same,tolerability,Tolerability studies,can be tolerated
same,IC50,"MOLM14; MOLM-14, MOLM14, 72 h, read-out: IC50 for killing Leukemia cell line",0.98 µM
same,IC50,"MOLM14; MOLM-14, leukemia, read-out: Anticancer activities, Molm14",0.98 µM
same,half-life,[1]; read-out: NADPH-dependent T½,3.27 h
same,half-life,[1]; read-out: NADPH-independent T½,> 4 h
same,IC50,U87,1.32 µM
same,IC50,NBM; [8],8.7 µM
same,IC50,"MDA-MB-231; Homo sapiens, MDA-MB-231, read-out: IC50 for killing triple negative breast cancer cell line (231)",1.9 µM
same,IC50,MDA-MB-231; [9],1.85 µM
N=C(N)c1ccc(/N=N/c2c(N)ncc3ccc(Br)cc23)cc1 [HSW630-1],IC50,PC-3; [7],0.59 µM
same,IC50,MV4-11,0.15 µM
same,tolerability,Tolerability studies,can be tolerated
same,IC50,"MOLM14; MOLM-14, read-out: Anticancer activities, Molm14",0.14 µM
same,migration of cancer cells,[2],prevents cancer cells from migrating
same,migration of cancer cells,[2]; listed as 630-1,can inhibit migration
same,half-life,[1]; read-out: NADPH-dependent T½,3.18 h
same,half-life,[1]; read-out: NADPH-independent T½,2.07 h
same,IC50,U87,0.56 µM
same,IC50,NBM; [8],5.1 µM
same,IC50,MDA-MB-231; [9],0.48 to 0.92 µM
"C[n+]1ccc(-c2c3nc(c(-c4cc[n+](C)cc4)c4ccc([nH]4)c(-c4cc[n+](C)cc4)c4ccc([nH]4)c(-c4cc[n+](C)cc4)c4nc2C=C4)C=C3)cc1 [TMPyP4, reference compound]",ΔTm duplex,duplex,1.14 ± 0.52 °C
same,IC50,OVCAR-3; [4],14.6 ± 5.7 µM
same,IC50,PC-3; [5],14 ± 5.4 µM
same,PCR product with non-G-quadruplex template,"Pu27-13,14",no PCR product was observed
same,IC50,MCR5A,15.2 ± 6.6 µM
same,ΔTm c-MYC,c-MYC,23.75 ± 0.52 °C
same,ΔTm c-kit2,c-kit2,3.46 ± 1.03 °C
same,polymerization/extension of oligomers Pu27 and Pu27rev,c-MYC Pu27,showed inhibition
same,ΔTm k-RAS21R,k-RAS21R,34.71 ± 0.93 °C
same,Ka,G-quadruplexes,≈ 5×10^6 M^−1
same,IC50,"NBM; normal bone marrow, 72 hours, WST-1, read-out: IC50 ± SD, NBM",16.8 µM
same,IC50,MDA-MB-231; [6],14.3 ± 4 µM
same,ΔTm F21T,F21T,4.01 ± 0.26 °C
c1ccc(N=NNc2ccccc2)cc1 [Triazene-2],self-aggregation,[3],exhibited self-aggregation
